Measured values as given in article PMC4732513, “Efficient one-pot synthesis, molecular docking and in silico ADME prediction of bis-(4-hydroxycoumarin-3-yl) methane derivatives as antileishmanial agents” (EXCLI Journal, 2015).
Converted amounts (≈) assume the structure as drawn.

test system: L. donovani promastigotes (NHOM/IN/80/DD8); assay: In vitro antileishmanial activity (modified MTT assay); assay type: cell-based, Leishmania donovani; conditions: Figure 3
Protocol: The assay for in vitro antileishmanial activity on culture of L. donovani promastigotes (NHOM/IN/80/DD8) was carried out in 96-well tissue culture plates. The promastigotes culture was maintained at 22 ^οC in modified RPMI 1640 pH 7.4 (without phenol red) with 10 % FCS medium. Drug dilutions were prepared in DMSO and appropriate concentration of each drug was used in triplicate. Plates were incubated at 22 °C for 72 h and evaluated using modified MTT assay, where the conversion of 3-(4,5-dimethylthiazol-2-yl)-2,5-diphenyltetrazolium bromide (MTT) to formazan by mitochondrial enzymes served as an indicator of cell viability and the amount of formazan produced was directly proportional to the number of metabolically active cells. Accordingly, absorbance at 492 nm represented the number of live cells. The concentration that decreased cell growth by 50 % (IC50) was determined by graphic interpolation. Pentamidine and sodium stibogluconate were used as standard drugs (Dutta et al., 2005[11]).
The assay for in vitro antileishmanial activity was carried out on cultures of L. donovani promastigotes. The concentration that decreased cell growth by 50 % (IC50) was determined by graphic interpolation and data obtained depicted in Table 3(Tab. 3).

SMILES | Effect on L. donovani promastigotes (viability, morphology)
CN(C)c1ccc(C(c2c(O)c3ccccc3oc2=O)c2c(O)c3ccccc3oc2=O)cc1 [3l, 3,3'-((4-(Dimethylamino)phenyl)methylene)bis(4-hydroxy-2H-chromen-2-one)] | organisms lost its viability as seen by irregular shape morphology

same assay, conditions: L. donovani promastigotes, 72 h at 22 °C, modified MTT, graphic interpolation

SMILES | IC50 (concentration that decreased cell growth by 50 %)
O.O.O.O.O.O.O.O.O.O=C([O-])[C@@H]1[O][Sb](=[O])([O][Sb]2(=[O])[O][C@H]([C@H](O)CO)[C@H](O)[C@H](C(=O)[O-])[O]2)[O][C@H]([C@H](O)CO)[C@@H]1O.[Na+].[Na+].[Na+] (stereo partly drawn) [Sodium stibogluconate, sodium stibogluconate, reference compound] | 490 µg/mL
COc1ccc(C(c2c(O)c3ccccc3oc2=O)c2c(O)c3ccccc3oc2=O)c(OC)c1 [3g] | 157.5 µg/mL (≈ 333 µM)

same assay, conditions: Leishmania donovani, 72 h, read-out: IC50 (concentration that decreased cell growth by 50 %)

SMILES | IC50
COc1ccc(C(c2c(O)c3ccccc3oc2=O)c2c(O)c3ccccc3oc2=O)cc1OC [3f, 3,3'-((3,4-Dimethoxyphenyl)methylene)-bis(4-hydroxy-2H-chromen-2-one)] | 275 µg/mL (≈ 582 µM)
COc1ccc(C(c2c(O)c3ccccc3oc2=O)c2c(O)c3ccccc3oc2=O)cc1 [3e, 3,3'-((4-Methoxyphenyl)methylene)bis(4-hydroxy-2H-chromen-2-one)] | 218 µg/mL (≈ 492 µM)
COc1ccc(OC)c(C(c2c(O)c3ccccc3oc2=O)c2c(O)c3ccccc3oc2=O)c1 [3h, 3,3'-((2,5-Dimethoxyphenyl)methylene)bis(4-hydroxy-2H-chromen-2-one)] | 198 µg/mL (≈ 418 µM)
COc1cc(C(c2c(O)c3ccccc3oc2=O)c2c(O)c3ccccc3oc2=O)cc(OC)c1OC [3i, 3,3'-((3,4,5-Trimethoxyphenyl)methylene)bis(4-hydroxy-2H-chromen-2-one)] | 262 µg/mL (≈ 522 µM)
O=c1oc2ccccc2c(O)c1C(c1ccccc1)c1c(O)c2ccccc2oc1=O [3a, 3,3'-(Phenylmethylene)bis(4-hydroxy-2H-chromen-2-one)] | 155 µg/mL (≈ 376 µM)
O=c1oc2ccccc2c(O)c1C(c1c(Cl)cccc1Cl)c1c(O)c2ccccc2oc1=O [3c, 3,3'-((2,6-Dichlorophenyl)methylene)bis(4-hydroxy-2H-chromen-2-one)] | 320 µg/mL (≈ 665 µM)
COc1cc(C(c2c(O)c3ccccc3oc2=O)c2c(O)c3ccccc3oc2=O)ccc1O [3j, 3,3'-((4-Hydroxy-3-methoxyphenyl)methylene)bis(4-hydroxy-2H-chromen-2-one)] | 198 µg/mL (≈ 431 µM)
O=c1oc2ccccc2c(O)c1C(c1ccc(Cl)cc1)c1c(O)c2ccccc2oc1=O [3b, 3,3'-((4-Chlorophenyl)methylene)bis(4-hydroxy-2H-chromen-2-one)] | 312 µg/mL (≈ 699 µM)
O=c1oc2ccccc2c(O)c1C(c1ccc(F)cc1)c1c(O)c2ccccc2oc1=O [3d, 3,3'-((4-Fluorophenyl)methylene)bis(4-hydroxy-2H-chromen-2-one)] | 295 µg/mL (≈ 685 µM)
N#Cc1ccc(C(c2c(O)c3ccccc3oc2=O)c2c(O)c3ccccc3oc2=O)cc1 [3k, 3,3'-((4-Cyanophenyl)methylene)bis(4-hydroxy-2H-chromen-2-one)] | 225 µg/mL (≈ 514 µM)
CN(C)c1ccc(C(c2c(O)c3ccccc3oc2=O)c2c(O)c3ccccc3oc2=O)cc1 [3l, 3,3'-((4-(Dimethylamino)phenyl)methylene)bis(4-hydroxy-2H-chromen-2-one)] | 150 µg/mL (≈ 329 µM)

same assay, conditions: Leishmania donovani; L. donovani promastigotes, 72 h at 22 °C, modified MTT, graphic interpolation; read-out: IC50 (concentration that decreased cell growth by 50 %)

IC50 | SMILES
5.5 µg/mL (≈ 16.2 µM) | N=C(N)c1ccc(OCCCCCOc2ccc(C(=N)N)cc2)cc1 [Pentamidine, pentamidine, reference compound]
